Measurements taken from publication PMC10101933 (European journal of medicinal chemistry, 2023).

How the values were obtained:
[1] = system: Nrf2 target genes (GSTM3, HMOX1 and NQO1); assay: RT-qPCR of Nrf2-ARE regulated genes in NCM460D cells; format: cell-based; details: 100 μM; for induction of the Nrf2 target genes (HMOX1, GSTM3, NQO1), in words: vs GAPDH and HPRT housekeeping genes
[2] = target: T1, Keap1 Kelch domain protein (Homo sapiens, UniProt Q14145); assay: Time-resolved fluorescence resonance energy transfer; format: binding
[3] = target: T1, Keap1 Kelch domain protein; assay: Fluorescence polarization; format: binding

T1 sequence (Q14145 321-609 limits assumed): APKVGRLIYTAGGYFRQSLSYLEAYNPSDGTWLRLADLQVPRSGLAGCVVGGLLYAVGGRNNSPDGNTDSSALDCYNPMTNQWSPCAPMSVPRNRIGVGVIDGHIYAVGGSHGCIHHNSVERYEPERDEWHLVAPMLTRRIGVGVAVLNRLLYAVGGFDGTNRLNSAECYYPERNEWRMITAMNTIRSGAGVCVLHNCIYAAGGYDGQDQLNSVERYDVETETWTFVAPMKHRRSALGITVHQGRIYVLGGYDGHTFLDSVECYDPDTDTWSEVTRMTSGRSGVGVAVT

Structure (SMILES): COc1ccc(-c2cc(N(CC(=O)O)S(=O)(=O)c3ccc(OC)cc3)c3ccccc3c2N(CC(=O)O)S(=O)(=O)c2ccc(OC)cc2)cc1 [Compound 12b, 2,2’-((2-(4-Methoxyphenyl)naphthalene-1,4-diyl)bis(((4-methoxyphenyl)sulfonyl)azanediyl))diacetic acid]
- induction of the Nrf2 target genes (HMOX1, GSTM3, NQO1), in words [1]: significant induction

Structure (SMILES): COc1ccc(S(=O)(=O)N(CC(=O)O)c2cc(-c3ccc(C#N)cc3)c(N(CC(=O)O)S(=O)(=O)c3ccc(OC)cc3)c3ccccc23)cc1 [Compound 12c, 2,2’-((2-(4-Cyanophenyl)naphthalene-1,4-diyl)bis(((4-methoxyphenyl)sulfonyl)azanediyl))diacetic acid]
- induction of the Nrf2 target genes (HMOX1, GSTM3, NQO1), in words [1]: no induction

Structure (SMILES): COc1ccc(S(=O)(=O)N(CC(=O)O)c2cc(-c3ccc(N4C(=O)c5ccccc5C4=O)cc3)c(N(CC(=O)O)S(=O)(=O)c3ccc(OC)cc3)c3ccccc23)cc1 [Compound 12d, 2,2’-((2-(4-(1,3-Dioxoisoindolin-2-yl)phenyl)naphthalene-1,4-diyl)bis(((4-methoxyphenyl)sulfonyl)azanediyl))diacetic acid]
- induction of the Nrf2 target genes (HMOX1, GSTM3, NQO1), in words [1]: significant induction

Structure (SMILES): COc1ccc(S(=O)(=O)N(CC(N)=O)c2cc(CCC(=O)O)c(N(CC(N)=O)S(=O)(=O)c3ccc(OC)cc3)c3ccccc23)cc1 [Compound 17a, 3-(1,4-Bis((N-(2-amino-2-oxoethyl)-4-methoxyphenyl)sulfonamido)naphthalen-2-yl)propanoic acid]
- fold decrease in potency relative to 2a ([2]; as indicated by TR-FRET IC50 and Ki): 3 fold

Structure (SMILES): COc1ccc(S(=O)(=O)N(CC(=O)O)c2cc(CCC(=O)N3CCOCC3)c(N(CC(=O)O)S(=O)(=O)c3ccc(OC)cc3)c3ccccc23)cc1 [Compound 17c, 2,2’-((2-(3-Morpholino-3-oxopropyl)naphthalene-1,4-diyl)bis(((4-methoxyphenyl)sulfonyl)azanediyl))diacetic acid]
- induction of the Nrf2 target genes (HMOX1, GSTM3, NQO1), in words [1]: significant induction
- fold increase in binding affinity vs 17b ([2]; as indicated by the TR-FRET Ki): 2 fold

Structure (SMILES): COc1ccc(S(=O)(=O)N(CC(=O)O)c2cc(CCC(N)=O)c(N(CC(=O)O)S(=O)(=O)c3ccc(OC)cc3)c3ccccc23)cc1 [Compound 21, 2,2’-((2-(3-Amino-3-oxopropyl)naphthalene-1,4-diyl)bis(((4-methoxyphenyl)sulfonyl)azanediyl))diacetic acid]
- fold drop in inhibitory activity vs 2a ([2]; as indicated by the Ki value from the TR-FRET assay): ~2 fold

Structure (SMILES): COc1ccc(S(=O)(=O)N(CC(=O)O)c2cc(CCCN3C(=O)c4ccccc4C3=O)c(N(CC(=O)O)S(=O)(=O)c3ccc(OC)cc3)c3ccccc23)cc1 [Compound 24a, 2,2’-((2-(3-(1,3-Dioxoisoindolin-2-yl)propyl)naphthalene-1,4-diyl)bis(((4-methoxyphenyl)sulfonyl)azanediyl))diacetic acid]
- mRNA levels of GSTM3, HMOX1 and NQO1, fold vs vehicle (DMSO) control [1]: 2.4–11.7 fold
- induction of the Nrf2 target genes (HMOX1, GSTM3, NQO1), in words [1]: significant induction
- Ki value (in words) ([2]; from TR-FRET assay): subnanomolar range

Structure (SMILES): COc1ccc(S(=O)(=O)N(CC(=O)O)c2cc(CCCN(C)Cc3ccccc3)c(N(CC(=O)O)S(=O)(=O)c3ccc(OC)cc3)c3ccccc23)cc1 [Compound 24b, 2,2’-((2-(3-(Benzyl(methyl)amino)propyl)naphthalene-1,4-diyl)bis(((4-methoxyphenyl)sulfonyl)azanediyl))diacetic acid]
- IC50 [3]: 276 ± 17 nM
- fold reduction in potency vs 24a ([2]; TR-FRET assay): more than 20 fold
